Literature values in patent US6428819B1, “Plant extracts for the preparation of pharmaceutical compositions for the treatment of hepatitis” (priority 1996, dated 2002).

Tested on: hepatitis C
Conditions: literature reports

Molecule | treatment outcome in chronic hepatitis
Nc1nc2c(ncn2COCCO)c(=O)[nH]1 [Acyclovir] | unsatisfactory
IFN-gamma: interferon gamma with known antiviral activity (protein, UniProt P01579 24-161, looked up) Interferon gamma: QDPYVKEAENLKKYFNAGHSDVADNGTLFLGILKNWKEESDRKIMQSQIVSFYFKLFKNFKDDQSIQKSVETIKEDMNVKFFNSNKKKRDDFEKLTNYSVTDLNVQRKAIHELIQVMAELSPAAKTGKRKRSQMLFRG | ineffective
